The values below are quoted from earlier work in US20170312269A1, “COMPOSITIONS AND METHODS FOR REDUCING FOOD CRAVINGS” (OREXIGEN THERAPEUTICS, INC., priority 2005, published 2017).

The conditions of this data set: in vivo; cited from earlier work.

For the compound `CNCCC(Oc1ccc(C(F)(F)F)cc1)c1ccccc1` (stereo not shown) [fluoxetine], the physiological half life entry is reported as “about 9 hours”.
